Measured values reported in patent US6448204B1, “Herbicidal 2-aryloxy-4-methyl-6-pyrazol-1-yl-pyridines” (BASF Aktiengesellschaft, priority 1999, dated 2002).

Key:
Format in all cases: in vivo
[1] = test system: Echinochloa crus-galli (ECHCG); test: Pre-emergence test; conditions: 3 weeks after treatment
Protocol: (§1) To evaluate their herbicidal activity, compounds according to the invention are tested using a representative range of plants: […] The pre-emergence tests involve spraying a liquid formulation of the compound onto the soil in which the seeds of the plant species mentioned above has recently been sown. The soil used in the tests is a prepared horticultural loam. […] In these tests untreated sown soil are used as controls.

[2] = test system: Ambrosia artemisifolia (AMBEL); test: Pre-emergence test; conditions: 3 weeks after treatment
Protocol: as §1

[3] = test system: thirteen weed species (broadleaf weeds and grasses); test: Pre-emergence test, summary over all weeds; conditions: for Number of weed species well / sufficiently controlled: out of thirteen species
Protocol: as §1

weed species = test: Post-emergence test, summary over all weeds
Protocol: (§2) To evaluate their herbicidal activity, compounds according to the invention are tested using a representative range of plants:
(§3) These acetone solutions are diluted with water and the resulting formulations applied at dosage levels equivalent of about 0.025 to 0.4 kg per hectare of test compound per pot. After spraying the plants are placed on greenhouse benches and are cared for in the usual manner, commensurate with conventional greenhouse practices. From 2 to 4 weeks after treatment, the seedling plants are examined and rated according to the rating system provided above.

[4] = test system: Digitaria sanguinalis (DIGSA); test: Post-emergence test; conditions: 2-4 weeks after treatment
Protocol: as §2, §3

[5] = test system: Abutilon theophrasti (ABUTH); test: Post-emergence test; conditions: 2-4 weeks after treatment
Protocol: as §2, §3

[6] = test system: Matricaria inodora (MATIN); test: Post-emergence test; conditions: 2-4 weeks after treatment
Protocol: as §2, §3

[7] = test system: Lolium multiflorum (LOLMU); test: Post-emergence test; conditions: 2-4 weeks after treatment
Protocol: as §2, §3

Stellaria media (STEME) = test: Post-emergence test; conditions: 2-4 weeks after treatment
Protocol: as §2, §3

Lamium purpureum (LAMPU) = test: Post-emergence test; conditions: 2-4 weeks after treatment
Protocol: as §2, §3

Galium aparine (GALAP) = test: Post-emergence test; conditions: 2-4 weeks after treatment
Protocol: as §2, §3

[8] = test system: Ipomoea hederacea (IPOHE); test: Post-emergence test; conditions: 2-4 weeks after treatment
Protocol: as §2, §3

[9] = test system: Cassia obtusifolia (CASOB); test: Post-emergence test; conditions: 2-4 weeks after treatment
Protocol: as §2, §3

Setaria viridis (SETVI) = test: Post-emergence test; conditions: 2-4 weeks after treatment
Protocol: as §2, §3

[10] = test system: Alopecurus myosuroides (ALOMY); test: Post-emergence test; conditions: 2-4 weeks after treatment
Protocol: as §2, §3

[11] = test system: Echinochloa crus-galli (ECHCG); test: Post-emergence test; conditions: 2-4 weeks after treatment
Protocol: as §2, §3

[12] = test system: Ambrosia artemisifolia (AMBEL); test: Post-emergence test; conditions: 2-4 weeks after treatment
Protocol: as §2, §3

Compound: Cc1cc(Oc2cc(C(F)(F)F)nn2C)nc(-n2ccc(C(F)(F)F)n2)c1 [Example 2, 4-methyl-2-(-3-trifluoromethyl-1H-prazol-1-yl)-6-(1-methyl-3-trifluoromethyl-pyrazol-5-yloxy)-pyridine]
- Assessment rating ECHCG (pre-emergence application) ([1]; 0.100 kg/ha): 8 (8 - Approaching complete kill)
- Assessment rating ECHCG (pre-emergence application) ([1]; 0.400 kg/ha): 8 (8 - Approaching complete kill)
- Assessment rating AMBEL (pre-emergence application) ([2]; 0.013 kg/ha): 4 (4 - Injury)
- Assessment rating AMBEL (pre-emergence application) ([2]; 0.025 kg/ha): 7 (7 - Good herbicidal effect)
- Assessment rating AMBEL (pre-emergence application) ([2]; 0.100 kg/ha): 8 (8 - Approaching complete kill)
- Assessment rating AMBEL (pre-emergence application) ([2]; 0.400 kg/ha): 9 (9 - Complete kill)
- Herbicidal activity, overall judgement [3]: excellent activity on both broadleaf weeds and grasses
- Rate required to obtain the same level of weed control [3]: 0.100 kg/ha
- Number of weed species well / sufficiently controlled ([3]; 0.100 kg/ha): eleven out of thirteen species
- Number of weed species well / sufficiently controlled ([3]; 0.400 kg/ha): all of the thirteen weed species
- Number of weed species controlled (weed species; 0.100 kg/ha): twelve weed species
- Herbicidal activity, overall judgement (weed species; versus known compound of the prior art): clearly superior activity
- Rating DIGSA (post-emergence application) ([4]; 0.025 kg/ha): 6 (6 - Herbicidal effect)
- Rating DIGSA (post-emergence application) ([4]; 0.100 kg/ha): 8 (8 - Approaching complete kill)
- Rating DIGSA (post-emergence application) ([4]; 0.400 kg/ha): 9 (9 - Complete kill)
- Rating ABUTH (post-emergence application) ([5]; 0.025 kg/ha): 6 (6 - Herbicidal effect)
- Rating ABUTH (post-emergence application) ([5]; 0.100 kg/ha): 8 (8 - Approaching complete kill)
- Rating ABUTH (post-emergence application) ([5]; 0.400 kg/ha): 9 (9 - Complete kill)
- Rating MATIN (post-emergence application) ([6]; 0.025 kg/ha): 6 (6 - Herbicidal effect)
- Rating MATIN (post-emergence application) ([6]; 0.100 kg/ha): 8 (8 - Approaching complete kill)
- Rating MATIN (post-emergence application) ([6]; 0.400 kg/ha): 8 (8 - Approaching complete kill)
- Rating LOLMU (post-emergence application) ([7]; 0.025 kg/ha): 6 (6 - Herbicidal effect)
- Rating LOLMU (post-emergence application) ([7]; 0.100 kg/ha): 9 (9 - Complete kill)
- Rating LOLMU (post-emergence application) ([7]; 0.400 kg/ha): 9 (9 - Complete kill)
- Rating STEME (post-emergence application) (Stellaria media (STEME); 0.025 kg/ha): 8 (8 - Approaching complete kill)
- Rating STEME (post-emergence application) (Stellaria media (STEME); 0.100 kg/ha): 9 (9 - Complete kill)
- Rating STEME (post-emergence application) (Stellaria media (STEME); 0.400 kg/ha): 9 (9 - Complete kill)
- Rating LAMPU (post-emergence application) (Lamium purpureum (LAMPU); 0.025 kg/ha): 8 (8 - Approaching complete kill)
- Rating LAMPU (post-emergence application) (Lamium purpureum (LAMPU); 0.100 kg/ha): 9 (9 - Complete kill)
- Rating LAMPU (post-emergence application) (Lamium purpureum (LAMPU); 0.400 kg/ha): 9 (9 - Complete kill)
- Rating GALAP (post-emergence application) (Galium aparine (GALAP); 0.025 kg/ha): 5 (5 - Definite injury)
- Rating GALAP (post-emergence application) (Galium aparine (GALAP); 0.100 kg/ha): 6 (6 - Herbicidal effect)
- Rating GALAP (post-emergence application) (Galium aparine (GALAP); 0.400 kg/ha): 8 (8 - Approaching complete kill)
- Rating IPOHE (post-emergence application) ([8]; 0.025 kg/ha): 9 (9 - Complete kill)
- Rating IPOHE (post-emergence application) ([8]; 0.100 kg/ha): 9 (9 - Complete kill)
- Rating IPOHE (post-emergence application) ([8]; 0.400 kg/ha): 9 (9 - Complete kill)
- Rating CASOB (post-emergence application) ([9]; 0.025 kg/ha): 9 (9 - Complete kill)
- Rating CASOB (post-emergence application) ([9]; 0.100 kg/ha): 9 (9 - Complete kill)
- Rating CASOB (post-emergence application) ([9]; 0.400 kg/ha): 9 (9 - Complete kill)
- Rating SETVI (post-emergence application) (Setaria viridis (SETVI); 0.025 kg/ha): 6 (6 - Herbicidal effect)
- Rating SETVI (post-emergence application) (Setaria viridis (SETVI); 0.100 kg/ha): 8 (8 - Approaching complete kill)
- Rating SETVI (post-emergence application) (Setaria viridis (SETVI); 0.400 kg/ha): 9 (9 - Complete kill)
- Rating ALOMY (post-emergence application) ([10]; 0.025 kg/ha): 4 (4 - Injury)
- Rating ALOMY (post-emergence application) ([10]; 0.100 kg/ha): 8 (8 - Approaching complete kill)
- Rating ALOMY (post-emergence application) ([10]; 0.400 kg/ha): 8 (8 - Approaching complete kill)
- Rating ECHCG (post-emergence application) ([11]; 0.025 kg/ha): 6 (6 - Herbicidal effect)
- Rating ECHCG (post-emergence application) ([11]; 0.100 kg/ha): 9 (9 - Complete kill)
- Rating ECHCG (post-emergence application) ([11]; 0.400 kg/ha): 9 (9 - Complete kill)
- Rating AMBEL (post-emergence application) ([12]; 0.025 kg/ha): 6 (6 - Herbicidal effect)
- Rating AMBEL (post-emergence application) ([12]; 0.100 kg/ha): 8 (8 - Approaching complete kill)
- Rating AMBEL (post-emergence application) ([12]; 0.400 kg/ha): 8 (8 - Approaching complete kill)
